Measured values published in US8546435B2, “Triazole derivatives with improved receptor activity and bioavailability properties as ghrelin antagonists of growth hormone secretagogue receptors” (AEterna Zentaris GmbH, priority 2010, dated 2013).
Where two headings read alike, the source gives them in different places.

Assays:
[1] = biological target: Rat Ghrelin Receptor (GHS-R 1A) (Rattus norvegicus (Rat), UniProt O08725); assay: Calcium release, antagonist; assay type: cell-based
Description: (§1) Mouse LTK-cells (ATCC CCL-1.3) were stably transfected with a plasmid containing the CMV minimal promoter (CMVmin) linked to three cAMP response elements (CRE) followed by a luciferase reporter gene. Based on this parental cell line, single cell clones stably overexpressing the human, rat or mouse GHS-R 1A have been established and characterized with respect to suitability for the different assay formats.
(§2) For determination of calcium release the respective cell line was loaded with Fluo-4 NW Calcium Assay Kit (Moleculare Probes/Invitrogen # F10741) for 80 min @ 37° C. After 15 minutes of preincubation with different concentrations of the test compounds ghrelin was added and the signal was monitored for 60 seconds by a FlexStation3 microplate reader (Molecular Devices).
(§3) IC50 values were determined by using the GraphPad Prism analysis program (GraphPad Software).
(§4) In the following table 1 results obtained for selected compounds of the invention are presented in comparison to compound 50 disclosed in WO07/020,013. Values given are either single measurements or mean values of up to nine independent experiments performed in duplicate (binding) or quadruplicate (functional assays) measurements.

[2] = biological target: Mouse Ghrelin Receptor (GHS-R 1A) (Mus musculus (Mouse), UniProt Q99P50); assay: Calcium release, antagonist; assay type: cell-based
Description: as §1, §2, §3, §4

[3] = biological target: MDR-1 (P-glycoprotein, Pgp) (Homo sapiens (Human), UniProt P08183); assay: Inhibition of MDR1 ATPase (Pgp-Glo assay, SF9 membrane preparations); assay type: biochemical
Method: For detection of MDR-1 (P-glycoprotein, Pgp) ATPase activity commercially available membrane preparations of MDR-1 overexpressing SF9 insect cells (SB-MDR1-Sf9-ATPase Membrane; 2.5 mg/500 μL; Solvo/tebu-bio #168SB-MDR1-Sf9-ATPase) were used. Since transport by MDR-1 is ATP-dependent, ATP consumption indicates transport activity of MDR-1. ATP consumption is detected as a decrease in luminescence from a second reaction with a recombinant firefly luciferase by using the Pgp-Glo™ Assay Kit (Promega # V3591).

CYP3A4 = CYP3A4 (Homo sapiens (Human), UniProt P08684); assay: CYP3A4 inhibition in human liver microsomes, direct and metabolism-dependent; assay type: in vitro ADME
Method: Direct and metabolism-dependent inhibition of CYP enzymes are assessed with specific marker substrates by a HPLC-based UV detection method in human liver microsomes. Incubations are carried out as doublets with final concentrations ranging from 0.01 to 200 μM (30 min, 37° C.). Metabolism-dependent inhibition was assessed by incubation for 30 minutes in the presence of NADPH prior to the addition of marker substrate to allow the generation of metabolites. Percent inhibition is plotted against concentration to calculate or extrapolate IC50 values from the sigmoid curve.

[4] = biological target: T1, Human Ghrelin Receptor (GHS-R 1A) (Homo sapiens (Human), UniProt Q92847); assay: CRE/Luc reporter gene assay, antagonist; assay type: cell-based; settings: 6 h, 1 μM rolipram
Description: as §1
For the CRE/Luc reporter gene assay, the mouse LTK-cells stably expressing the human GHS-1RA and a luciferase reporter gene under the control of CRE elements and the CMV minimal promoter were incubated for 6 h with 1 μM rolipram in the presence of different concentrations of AEZS-130. Subsequently, cells were lysed and ATP bioluminescence was measured in the luminescence mode on FlexStation3 (Molecular Devices).
as §3
(§5) Values given are either single measurements or mean values of up to nine independent experiments performed in duplicate (binding) or quadruplicate (functional assays) measurements.

[5] = CaCo-2 permeability assay; assay type: in vitro ADME; settings: human; for Papp A→B at 2 h: a to b, read-out: CaCo-2 Assay Papp ab; for Papp A→B at 2 h / Papp B→A at 2 h: 3 or 5 μM, 2 hours at 37° C.; for Papp B→A at 2 h: b to a, read-out: CaCo-2 Assay Papp ba; for efflux ratio at 2 h: read-out: CaCo-2 Assay ba/ab
Method: For the CaCo-2 permeability assay 80.000 CaCo-2 cells (ATCC HTB-37) were seeded in DMEM supplemented with 10% FCS, 1% Penicillin/Streptomycin and 1% non-essential amino acids per 24 well transwell plate (Corning 3397) and were grown for 21 days by changing the media every second day. On day 21 the medium was replaced by HBSS buffer (Invitrogen #14065) supplemented with 0.25% and 1% BSA for the donor and acceptor compartment, respectively. The compounds were added to the respective donor compartment in a concentration of 3 or 5 μM and were incubated for 2 hours at 37° C. The respective compound concentrations were determined by LC-MS analytics using an API 2000. Data analysis was performed as described by Sun and Pang 2008, Drug Metabolism and Disposition 36, 102-123.

[6] = biological target: T1, Human Ghrelin Receptor (GHS-R 1A); assay: Calcium release, antagonist; assay type: cell-based; settings: 15 minutes preincubation, then ghrelin
Description: as §1, §2, §3, §5

[7] = Stability in liver microsomes; assay type: in vitro ADME, rat; settings: @37° C./1 mg/ml Liver Microsomes, 10 μM
Method: (§6) Metabolic stability in liver microsomes of different species (in the presence of NADPH, 1 mg/ml microsomal protein) was evaluated at 37° C. over time in triplicates at a test concentration of 10 μM. Loss of parent compound is measured by an HPLC-based UV detection method. For prediction of rat hepatic clearance half-lives (t1/2) were fitted from first-order rate constant k (min^−1) obtained from the slope of time versus In % remaining.

hERG channel = hERG channel (Homo sapiens (Human), UniProt Q12809); assay: Predictor hERG Fluorescence Polarization Assay; assay type: binding
Description: The Predictor™ hERG Fluorescence Polarization Assay (Invitrogen, Karlsruhe, GER) determines whether test compounds block the hERG channel [Piper, D. R. et al., Assay Drug Dev Technol. 2008, 6(2):213-23]. The assay uses a membrane fraction containing hERG channel protein (Predictor™ hERG Membrane) and a high-affinity red fluorescent hERG channel ligand, or “tracer” (Predictor™ hERG Tracer Red), in a homogenous, fluorescence polarization (FP)-based format. Compounds that bind to the hERG channel protein (competitors) are identified by their ability to displace the tracer, resulting in a lower fluorescence polarization. The assay was performed according to guidelines of the manufacturer

[8] = biological target: T1, Human Ghrelin Receptor (GHS-R 1A); assay: Competitive binding, iodinated ghrelin tracer, intact LTK-cells overexpressing GHS-R 1A; settings: 60 min at 37° C.
Description: as §1
For receptor competitive binding studies, iodinated ghrelin was used as a tracer at conditions of about 80% saturation binding. Different concentrations of the test compounds were analyzed for displacement of the tracer. For this purpose, the suspension of intact cells plus tracer mix and different test compound concentrations was layered on top of silicon/paraffin oil, incubated for 60 min at 37° C. and subjected to centrifugation. After freezing in liquid nitrogen the cell pellets were separated from the supernatant by cutting the tubes in the intermediate silicon/paraffin oil section and analyzed by γ-radiation analysis. The amount of unspecific binding was determined by including unlabeled ghrelin at 1 μM final concentration.
as §3, §5

[9] = Stability in liver microsomes; assay type: in vitro ADME, human; settings: @37° C./1 mg/ml Liver Microsomes, 10 μM
Method: as §6

[10] = Stability in liver microsomes; assay type: in vitro ADME, mouse; settings: 37° C./1 mg/ml Liver Microsomes, 10 μM
Method: as §6

[11] = 15 minutes preincubation, then ghrelin, read-out: Rat Ghrelin Receptor Antagonist Calcium Release IC50
[12] = 15 minutes preincubation, then ghrelin, read-out: Mouse Ghrelin Receptor Antagonist Calcium Release IC50
[13] = marker substrate midazolam, 30 minutes preincubation with NADPH, read-out: CYP3A4 Inhibition Midazolam Preincubation EC50
[14] = marker substrate midazolam, direct inhibition, human liver microsomes, read-out: CYP3A4 Inhibition Midazolam EC50
[15] = marker substrate testosteron, 30 minutes preincubation with NADPH, read-out: CYP3A4 Inhibition Testosteron Preincubation EC50
[16] = marker substrate testosteron, direct inhibition, human liver microsomes, read-out: CYP3A4 Inhibition Testosteron EC50

CYP3A4, sequence (P08684 whole entry): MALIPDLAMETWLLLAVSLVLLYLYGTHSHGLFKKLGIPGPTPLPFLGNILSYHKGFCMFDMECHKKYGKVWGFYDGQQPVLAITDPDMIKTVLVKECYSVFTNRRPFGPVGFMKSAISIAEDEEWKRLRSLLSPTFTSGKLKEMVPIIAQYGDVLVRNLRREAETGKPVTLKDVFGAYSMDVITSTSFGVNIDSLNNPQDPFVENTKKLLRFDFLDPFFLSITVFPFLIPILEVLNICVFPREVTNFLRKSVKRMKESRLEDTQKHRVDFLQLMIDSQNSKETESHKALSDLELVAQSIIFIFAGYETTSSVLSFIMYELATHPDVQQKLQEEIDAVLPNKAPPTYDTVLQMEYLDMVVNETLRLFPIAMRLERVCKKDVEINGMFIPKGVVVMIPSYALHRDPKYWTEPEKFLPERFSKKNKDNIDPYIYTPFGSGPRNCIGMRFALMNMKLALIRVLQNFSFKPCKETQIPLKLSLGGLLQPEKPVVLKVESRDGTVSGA
hERG channel, sequence (Q12809 whole entry): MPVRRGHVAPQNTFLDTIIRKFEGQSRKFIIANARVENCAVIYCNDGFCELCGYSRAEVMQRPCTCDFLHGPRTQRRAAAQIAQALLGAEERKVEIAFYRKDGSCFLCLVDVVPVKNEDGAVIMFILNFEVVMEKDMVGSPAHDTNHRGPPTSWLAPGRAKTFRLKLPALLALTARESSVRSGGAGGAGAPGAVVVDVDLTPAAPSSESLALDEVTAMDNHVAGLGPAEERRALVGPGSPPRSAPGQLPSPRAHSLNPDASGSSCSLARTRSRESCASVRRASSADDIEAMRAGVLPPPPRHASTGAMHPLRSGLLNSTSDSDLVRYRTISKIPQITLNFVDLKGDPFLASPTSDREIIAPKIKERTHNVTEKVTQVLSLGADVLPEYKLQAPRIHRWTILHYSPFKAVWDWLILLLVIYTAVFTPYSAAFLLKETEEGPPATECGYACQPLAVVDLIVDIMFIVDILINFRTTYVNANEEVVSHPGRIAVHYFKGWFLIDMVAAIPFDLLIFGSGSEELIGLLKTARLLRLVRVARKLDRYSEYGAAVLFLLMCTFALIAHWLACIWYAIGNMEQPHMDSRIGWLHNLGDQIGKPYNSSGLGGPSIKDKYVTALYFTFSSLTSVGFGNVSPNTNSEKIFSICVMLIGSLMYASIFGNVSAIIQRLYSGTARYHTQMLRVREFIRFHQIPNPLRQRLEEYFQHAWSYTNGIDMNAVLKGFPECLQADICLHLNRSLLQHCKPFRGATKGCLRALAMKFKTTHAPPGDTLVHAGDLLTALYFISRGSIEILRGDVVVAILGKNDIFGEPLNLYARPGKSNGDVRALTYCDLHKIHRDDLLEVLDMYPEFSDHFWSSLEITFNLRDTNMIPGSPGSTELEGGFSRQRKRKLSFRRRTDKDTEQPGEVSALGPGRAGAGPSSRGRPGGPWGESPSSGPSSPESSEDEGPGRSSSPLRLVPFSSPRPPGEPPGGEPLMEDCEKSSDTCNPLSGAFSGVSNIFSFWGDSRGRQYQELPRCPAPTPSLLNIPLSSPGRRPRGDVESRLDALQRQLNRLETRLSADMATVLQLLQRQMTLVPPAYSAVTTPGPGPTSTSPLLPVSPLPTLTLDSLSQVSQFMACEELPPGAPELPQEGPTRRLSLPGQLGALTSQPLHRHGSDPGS
T1 sequence (Q92847 whole entry): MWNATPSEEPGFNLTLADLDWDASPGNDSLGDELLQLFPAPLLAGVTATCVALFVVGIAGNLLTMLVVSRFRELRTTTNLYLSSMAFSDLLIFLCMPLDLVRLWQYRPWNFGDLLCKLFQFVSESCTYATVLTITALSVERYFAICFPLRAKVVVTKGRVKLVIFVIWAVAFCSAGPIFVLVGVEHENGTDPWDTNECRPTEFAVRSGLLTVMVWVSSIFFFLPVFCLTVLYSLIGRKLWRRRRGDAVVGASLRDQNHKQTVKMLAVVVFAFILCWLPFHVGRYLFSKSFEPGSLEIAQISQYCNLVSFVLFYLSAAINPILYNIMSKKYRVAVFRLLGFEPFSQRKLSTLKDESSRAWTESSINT
MDR-1 (P-glycoprotein, Pgp), sequence (P08183 whole entry): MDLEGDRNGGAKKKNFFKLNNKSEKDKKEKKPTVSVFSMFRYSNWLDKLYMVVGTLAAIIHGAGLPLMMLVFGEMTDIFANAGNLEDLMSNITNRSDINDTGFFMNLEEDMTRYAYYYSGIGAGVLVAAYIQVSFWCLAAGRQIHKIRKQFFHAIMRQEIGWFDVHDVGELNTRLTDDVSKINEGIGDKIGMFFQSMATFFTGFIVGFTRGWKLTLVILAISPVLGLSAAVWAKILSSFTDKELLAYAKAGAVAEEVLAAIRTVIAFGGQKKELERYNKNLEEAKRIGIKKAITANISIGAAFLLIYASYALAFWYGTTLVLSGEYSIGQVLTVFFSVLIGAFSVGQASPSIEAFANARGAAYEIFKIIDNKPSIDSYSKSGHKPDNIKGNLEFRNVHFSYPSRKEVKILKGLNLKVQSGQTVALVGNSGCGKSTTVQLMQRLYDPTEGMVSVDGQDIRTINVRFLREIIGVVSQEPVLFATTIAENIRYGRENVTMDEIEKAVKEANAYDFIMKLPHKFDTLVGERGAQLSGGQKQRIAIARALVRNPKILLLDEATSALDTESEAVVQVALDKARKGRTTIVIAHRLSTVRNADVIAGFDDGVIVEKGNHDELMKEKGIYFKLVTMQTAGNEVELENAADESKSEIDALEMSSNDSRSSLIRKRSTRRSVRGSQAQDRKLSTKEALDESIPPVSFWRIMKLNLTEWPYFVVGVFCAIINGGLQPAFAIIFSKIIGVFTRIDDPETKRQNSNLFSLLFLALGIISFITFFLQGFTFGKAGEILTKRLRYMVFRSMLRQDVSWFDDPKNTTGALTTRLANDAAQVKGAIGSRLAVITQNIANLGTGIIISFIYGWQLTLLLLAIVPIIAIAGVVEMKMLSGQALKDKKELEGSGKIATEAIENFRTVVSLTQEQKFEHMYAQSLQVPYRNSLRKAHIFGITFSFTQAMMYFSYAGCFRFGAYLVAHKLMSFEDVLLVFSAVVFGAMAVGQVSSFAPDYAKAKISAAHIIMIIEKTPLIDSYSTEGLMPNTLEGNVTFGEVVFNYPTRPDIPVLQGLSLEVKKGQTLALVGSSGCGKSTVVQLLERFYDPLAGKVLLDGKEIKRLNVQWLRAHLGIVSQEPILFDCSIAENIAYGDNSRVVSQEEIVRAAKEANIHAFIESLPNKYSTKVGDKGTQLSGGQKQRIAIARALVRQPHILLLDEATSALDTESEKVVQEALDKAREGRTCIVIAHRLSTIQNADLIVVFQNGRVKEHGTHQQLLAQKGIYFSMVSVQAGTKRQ
Rat Ghrelin Receptor (GHS-R 1A), sequence (O08725 whole entry): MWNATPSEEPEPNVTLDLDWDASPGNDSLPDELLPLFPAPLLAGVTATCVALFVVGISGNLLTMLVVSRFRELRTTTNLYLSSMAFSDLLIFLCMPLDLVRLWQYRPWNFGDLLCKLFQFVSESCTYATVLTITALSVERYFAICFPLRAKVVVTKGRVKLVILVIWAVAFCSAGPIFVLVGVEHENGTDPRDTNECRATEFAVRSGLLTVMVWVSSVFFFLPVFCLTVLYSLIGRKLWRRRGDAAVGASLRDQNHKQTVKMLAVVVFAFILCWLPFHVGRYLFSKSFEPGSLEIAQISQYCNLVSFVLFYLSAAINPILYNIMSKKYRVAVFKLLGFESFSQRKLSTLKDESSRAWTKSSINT
Mouse Ghrelin Receptor (GHS-R 1A), sequence (Q99P50 whole entry): as the sequence (O08725 whole entry) above, with P30S, A249S counted along it

| SMILES | IC50 [1, 11] [nM] | IC50 [2, 12] [nM] | EC50 [3] [nM] | EC50 (CYP3A4; [13]) [nM] | EC50 (CYP3A4; [14]) [nM] | IC50 [4] [nM] | Papp A→B at 2 h [5] [×10⁻⁶ cm/s] | Papp B→A at 2 h [5] [×10⁻⁶ cm/s] | efflux ratio at 2 h [5] | IC50 [6] [nM] | Stability in Liver Microsomes Rat % Remaining after 1 h Incubation [7] [%] | hERG Predictor EC50 (hERG channel) | IC50 [8] [nM] | Inhibition of MDR1 ATPase EC50 [3] | Stability in Liver Microsomes Human % Remaining after 1 h Incubation [9] [%] | Stability in Liver Microsomes Mouse % Remaining (@30 min) [10] [%] | EC50 (CYP3A4; [15]) [nM] | EC50 (CYP3A4; [16]) [nM] | further results |
| --- | --- | --- | --- | --- | --- | --- | --- | --- | --- | --- | --- | --- | --- | --- | --- | --- | --- | --- | --- |
| COc1ccc(Cn2c([C@@H](Cc3c[nH]c4ccccc34)NC(C)=O)nnc2[C@@H](Cc2c[nH]c3ccccc23)NC(=O)c2ccccn2)cc1.O=C(O)C(F)(F)F [Cpd 3, Pyridine-2-carboxylic acid [(R)-1-[5-[(R)-1-acetylamino-2-(1H-indol-3-yl)-ethyl]-4-(4-methoxy-benzyl)-4H-[1,2,4]triazol-3-yl]-2-(1H-indol-3-yl)-ethyl]-amide] | 29.9 | 29.2 | 38600 | 980 | 3200 | 2.2 | 0.37 ± 0.02 | 17.2 ± 0.42 | 51.9 | 2.5 | 38.5 | no inhibition | 0.6 | – | – | – | – | – | – |
| COc1ccc(Cn2c([C@@H](Cc3ccccc3)NC(C)=O)nnc2[C@@H](Cc2c[nH]c3ccccc23)NC(=O)c2ccccn2)cc1.O=C(O)C(F)(F)F [Cpd 4, Pyridine-2-carboxylic acid [(R)-1-[5-((R)-1-acetylamino-2-phenyl-ethyl)-4-(4-methoxy-benzyl)-4H-[1,2,4]triazol-3-yl]-2-(1H-indol-3-yl)-ethyl]-amide] | – | – | – | 2300 | 3900 | – | 1.41 | 25.4 | 18 | – | 46.7 | no full dose | – | no full dose | 9.1 | 0.0 | – | – | IC50 [1]: 239 nM; IC50 [2]: 68.7 nM |
| COc1ccc(Cn2c([C@@H](Cc3ccccc3)NC=O)nnc2[C@@H](Cc2c[nH]c3ccccc23)NC(=O)c2ccccn2)cc1.O=C(O)C(F)(F)F [Cpd 5, Pyridine-2-carboxylic acid [(R)-1-[5-((R)-1-formylamino-2-phenyl-ethyl)-4-(4-methoxy-benzyl)-4H-[1,2,4]triazol-3-yl]-2-(1H-indol-3-yl)-ethyl]-amide] | 290 | 89.3 | – | 1200 | 3800 | 8.3 | 1.26 | 16.8 | 13.3 | 3.1 | 41.9 | no full dose | 3.4 | no inhibition | 0 | 0.0 | – | – | – |
| COc1ccc(Cn2c([C@@H](Cc3c[nH]c4ccccc34)NC(C)=O)nnc2[C@@H](Cc2c[nH]c3ccccc23)NC(=O)C(C)(C)N)cc1.O=C(O)C(F)(F)F [Cpd 8, N-[(R)-1-[5-[(R)-1-Acetylamino-2-(1H-indol-3-yl)-ethyl]-4-(4-methoxy-benzyl)-4H-[1,2,4]triazol-3-yl]-2-(1H-indol-3-yl)-ethyl]-2-amino-2-methyl-propionamide] | 1050 | 363 | 196000 | – | – | 22.4 | 0.08 ± 0.08 | 0.74 ± 0.03 | 9.25 | 19.1 | 64.3 | no inhibition | 1.4 | – | – | – | 900 | 31200 | – |
| COc1ccc(Cn2c(CCc3ccccc3)nnc2[C@@H](Cc2c[nH]c3ccccc23)NC(=O)OCC(C)C)cc1.O=C(O)C(F)(F)F [Cpd 17, {(R)-2-(1H-Indol-3-yl)-1-[4-(4-methoxy-benzyl)-5-phenethyl-4H-[1,2,4]triazol-3-yl]-ethyl}-carbamic acid isobutyl ester] | 925 | 607 | – | – | – | 21.1 | 22.4 | 10 | 0.45 | 31.4 | 24.8 | – | 8.6 | no full dose | 0 | 0.0 | 2000 | 10400 | EC50 (hERG channel): 3680 nM |
